Source: patent US7704699B2, “Method for the characterization of the three-dimensional structure of proteins employing mass spectrometric analysis and computational feedback modeling” (H-NU OPS, Inc., priority 1993, dated 2010)

Test system: cytochrome c; horse tuna and yeast
Experiment: ES-MS study of non-covalent interactions of crown ethers with three types of cytochrome c (rank order)
Assay type: binding
Conditions: rank among the three crown ethers, all three cytochrome c types
Description: […]; horse tuna and yeast, utilizing the ES probe 50 and method of this invention.
More particularly, the experiments showing binding of crowns to cytochrome c were done by adding 1, 2, and 3 mol ratios to a 70 pmol/μL mixture of the three different cytochrome c's. The solutions were prepared with equal parts of methanol/water with 1% acetic acid. Typical sample conditions were, 95° C., 2 μL/min, 4000 VDC on the syringe, 170 VDC on the capillary tube, and 60 VDC on the skimmer.

Compound	relative tightness of binding to cytochrome c
C1CCC2OCCOCCOC3CCCCC3OCCOCCOC2C1 (centres unmarked) [Dicyclohexano-18-Crown-6, dicyclohexano-18-crown-6]	binding the most tightly
c1ccc2c(c1)OCCOCCOc1ccccc1OCCOCCO2 [Dibenzo-18-Crown-6, dibenzo-18-crown-6]	binding the least tightly
